In patent US10722501B2 (BAYER AKTIENGESELLSCHAFT, priority 2016, dated 2020):

What follows are compounds tested against T1, recombinant full-length human prolyl endopeptidase (PREP) (Homo sapiens, UniProt P48147) (assay: Biochemical human prolyl endopeptidase (PREP) assay with fluorescently labelled substrate). Conditions: substrate Z-Gly-Pro-AMC 50 μM, 32° C., 60 min; some as mean values from multiple independent determinations.
T1 construct: To recombinant full-length human prolyl endopeptidase (PREP, R&D-Systems, 4308-SE); purchased R&D-Systems 4308-SE
T1 sequence (P48147 1-710): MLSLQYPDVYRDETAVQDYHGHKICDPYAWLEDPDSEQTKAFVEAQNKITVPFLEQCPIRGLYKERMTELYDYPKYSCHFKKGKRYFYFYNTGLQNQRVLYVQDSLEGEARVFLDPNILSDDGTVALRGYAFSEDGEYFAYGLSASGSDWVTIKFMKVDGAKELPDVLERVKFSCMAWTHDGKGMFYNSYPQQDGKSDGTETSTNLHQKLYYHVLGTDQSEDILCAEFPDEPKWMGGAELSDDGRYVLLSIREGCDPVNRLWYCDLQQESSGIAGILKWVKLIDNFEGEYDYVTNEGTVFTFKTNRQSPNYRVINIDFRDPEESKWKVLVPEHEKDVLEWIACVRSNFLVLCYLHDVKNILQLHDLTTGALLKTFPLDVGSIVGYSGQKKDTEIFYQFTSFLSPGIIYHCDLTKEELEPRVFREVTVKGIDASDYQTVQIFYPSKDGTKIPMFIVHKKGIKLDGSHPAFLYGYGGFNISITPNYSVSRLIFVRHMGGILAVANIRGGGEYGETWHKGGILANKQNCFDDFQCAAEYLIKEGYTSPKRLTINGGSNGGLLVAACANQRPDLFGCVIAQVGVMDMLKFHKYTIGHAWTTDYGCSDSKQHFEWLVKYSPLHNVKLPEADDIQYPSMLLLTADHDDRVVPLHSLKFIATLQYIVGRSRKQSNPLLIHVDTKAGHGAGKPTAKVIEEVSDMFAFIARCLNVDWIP
Method in brief: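 0.4 nM (final, example) recombinant PREP in pH 7.5 Tris buffer with EDTA, GSH, BSA and Brij-35; compounds at 1 nM to 30 μM. Reaction started with 50 μM Z-Gly-Pro-AMC and followed by fluorescence (ex 360/em 465 nm) at 32° C for 60 min. IC50 interpolated from percent activity based on initial slopes.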

Compound | IC50 [nM]
O=C([C@@H]1CCCc2nn(Cc3cncc(Br)c3)c(=O)n21)N1C[C@@H](F)[C@@H](F)C1 [Example 506, (5S)-2-[(5-Bromopyridin-3-yl)methyl]-5-{[(3R,4S)-3,4-difluoropyrrolidin-1-yl]carbonyl}-5,6,7,8-tetrahydro[1,2,4]triazolo[4,3-a]pyridin-3(2H)-one] | 1.2
O=C([C@@H]1CCCc2nn(Cc3ncc(Cl)cc3F)c(=O)n21)N1CCSC1 [Example 507, (5S)-2-[(5-Chloro-3-fluoropyridin-2-yl)methyl]-5-(1,3-thiazolidin-3-ylcarbonyl)-5,6,7,8-tetrahydro[1,2,4]triazolo[4,3-a]pyridin-3(2H)-one] | 0.94
O=C([C@@H]1CCCc2nn(Cc3ccc(Cl)cn3)c(=O)n21)N1CC[C@H](F)C1 [Example 508, (5S)-2-[(5-Chloropyridin-2-yl)methyl]-5-{[(3S)-3-fluoropyrrolidin-1-yl]carbonyl}-5,6,7,8-tetrahydro[1,2,4]triazolo[4,3-a]pyridin-3(2H)-one] | 0.91
O=C([C@@H]1CCCc2nn(Cc3cncc(Br)c3)c(=O)n21)N1CC[C@H](F)C1 [Example 509, (5S)-2-[(5-Bromopyridin-3-yl)methyl]-5-{[(3S)-3-fluoropyrrolidin-1-yl]carbonyl}-5,6,7,8-tetrahydro[1,2,4]triazolo[4,3-a]pyridin-3(2H)-one] | 0.7
O=C([C@@H]1CCCc2nn(Cc3ccc(Br)cn3)c(=O)n21)N1CC[C@H](F)C1 [Example 510, (5S)-2-[(5-Bromopyridin-2-yl)methyl]-5-{[(3S)-3-fluoropyrrolidin-1-yl]carbonyl}-5,6,7,8-tetrahydro[1,2,4]triazolo[4,3-a]pyridin-3(2H)-one] | 0.535
N#C[C@@H]1CCCN1C(=O)[C@@H]1CCCc2nn(Cc3ccc(C(F)(F)F)nc3)c(=O)n21 [Example 511, (2S)-1-{[(5S)-3-Oxo-2-{[6-(trifluoromethyl)pyridin-3-yl]methyl}-2,3,5,6,7,8-hexahydro[1,2,4]triazolo[4,3-a]pyridin-5-yl]carbonyl}pyrrolidine-2-carbonitrile] | 0.365
N#C[C@@H]1CCCN1C(=O)[C@@H]1CCCc2nn(Cc3ccc(Cl)cn3)c(=O)n21 [Example 512, (2S)-1-({(5S)-2-[(5-Chloropyridin-2-yl)methyl]-3-oxo-2,3,5,6,7,8-hexahydro[1,2,4]triazolo[4,3-a]pyridin-5-yl}carbonyl)pyrrolidine-2-carbonitrile] | 0.15
N#C[C@@H]1CCCN1C(=O)[C@@H]1CCCc2nn(Cc3ncc(Cl)cc3Cl)c(=O)n21 [Example 513, (2S)-1-({(5S)-2-[(3,5-Dichloropyridin-2-yl)methyl]-3-oxo-2,3,5,6,7,8-hexahydro[1,2,4]triazolo[4,3-a]pyridin-5-yl}carbonyl)pyrrolidine-2-carbonitrile] | 0.13
N#C[C@@H]1CCCN1C(=O)[C@@H]1CCCc2nn(Cc3ncc(Cl)cc3F)c(=O)n21 [Example 514, (2S)-1-({(5S)-2-[(5-Chloro-3-fluoropyridin-2-yl)methyl]-3-oxo-2,3,5,6,7,8-hexahydro[1,2,4]triazolo[4,3-a]pyridin-5-yl}carbonyl)pyrrolidine-2-carbonitrile] | 0.061
O=C([C@@H]1CCCc2nn(Cc3cncc(C(F)(F)F)c3)c(=O)n21)N1CC[C@H](F)C1 [Example 515, (5S)-5-{[(3S)-3-Fluoropyrrolidin-1-yl]carbonyl}-2-{[5-(trifluoromethyl)pyridin-3-yl]methyl}-5,6,7,8-tetrahydro[1,2,4]triazolo[4,3-a]pyridin-3(2H)-one] | 0.59
Cc1ccc(C(=O)Cn2nc3n(c2=O)[C@H](C(=O)N2CC[C@H](F)C2)CCC3)cc1 [Example 516, (5S)-5-{[(3S)-3-Fluoropyrrolidin-1-yl]carbonyl}-2-[2-(4-methylphenyl)-2-oxoethyl]-5,6,7,8-tetrahydro[1,2,4]triazolo[4,3-a]pyridin-3(2H)-one] | 4.2
Cc1ccc(C(F)(F)Cn2nc3n(c2=O)[C@H](C(=O)N2CC[C@H](F)C2)CCC3)cc1 [Example 517, (5S)-2-[2,2-Difluoro-2-(4-methylphenyl)ethyl]-5-{[(3S)-3-fluoropyrrolidin-1-yl]carbonyl}-5,6,7,8-tetrahydro[1,2,4]triazolo[4,3-a]pyridin-3(2H)-one] | 0.95
O=C([C@@H]1CCCc2nn(CCc3ncc(C(F)(F)F)cc3Cl)c(=O)n21)N1CC(F)C1 [Example 518, (5S)-2-{[3-Chloro-5-(trifluoromethyl)pyridin-2-yl]ethyl}-5-[(3-fluoroazetidin-1-yl)carbonyl]-5,6,7,8-tetrahydro[1,2,4]triazolo[4,3-a]pyridin-3(2H)-one] | 15
O=C([C@@H]1CCCc2nn(CCc3ccc(F)cc3)c(=O)n21)N1CCC(F)(F)C1 [Example 519, (5S)-5-[(3,3-Difluoropyrrolidin-1-yl)carbonyl]-2-[2-(4-fluorophenyl)ethyl]-5,6,7,8-tetrahydro[1,2,4]triazolo[4,3-a]pyridin-3(2H)-one] | 1.4
O=C([C@@H]1CCCc2nn(CCc3ccc(F)cc3)c(=O)n21)N1CC(F)C1 [Example 520, (5S)-5-[(3-Fluoroazetidin-1-yl)carbonyl]-2-[2-(4-fluorophenyl)ethyl]-5,6,7,8-tetrahydro[1,2,4]triazolo[4,3-a]pyridin-3(2H)-one] | 1.7
Cc1ccc(CCn2nc3n(c2=O)[C@H](C(=O)N2CCCC2)CCC3)cc1 [Example 521, (5S)-2-[2-(4-Methylphenyl)ethyl]-5-(pyrrolidin-1-ylcarbonyl)-5,6,7,8-tetrahydro[1,2,4]triazolo[4,3-a]pyridin-3(2H)-one] | 0.44
COc1ccc(CCn2nc3n(c2=O)[C@H](C(=O)N2C[C@@H](F)[C@@H](F)C2)CCC3)cc1 [Example 522, (5S)-5-{[(3R,4S)-3,4-Difluoropyrrolidin-1-yl]carbonyl}-2-[2-(4-methoxyphenyl)ethyl]-5,6,7,8-tetrahydro[1,2,4]triazolo[4,3-a]pyridin-3(2H)-one] | 1.5
COc1ccc(CCn2nc3n(c2=O)[C@H](C(=O)N2CC(F)(F)C2)CCC3)cc1 [Example 523, (5S)-5-[(3,3-Difluoroazetidin-1-yl)carbonyl]-2-[2-(4-methoxyphenyl)ethyl]-5,6,7,8-tetrahydro[1,2,4]triazolo[4,3-a]pyridin-3(2H)-one] | 28.5
Cc1ccc(C2(Cn3nc4n(c3=O)[C@H](C(=O)N3CCC(F)(F)C3)CCC4)CC2)cc1 [Example 524, (5S)-5-[(3,3-Difluoropyrrolidin-1-yl)carbonyl]-2-{[1-(4-methylphenyl)cyclopropyl]methyl}-5,6,7,8-tetrahydro[1,2,4]triazolo[4,3-a]pyridin-3(2H)-one] | 2.9
Cc1ccc(C2(Cn3nc4n(c3=O)[C@H](C(=O)N3CC[C@H](O)C3)CCC4)CC2)cc1 [Example 525, (5S)-5-{[(3S)-3-Hydroxypyrrolidin-1-yl]carbonyl}-2-{[1-(4-methylphenyl)cyclopropyl]methyl}-5,6,7,8-tetrahydro[1,2,4]triazolo[4,3-a]pyridin-3(2H)-one] | 15.2
Cc1ccc(C2(Cn3nc4n(c3=O)[C@H](C(=O)N3CC[C@H](F)C3)CCC4)CC2)cc1 [Example 526, (5S)-5-{[(3S)-3-Fluoropyrrolidin-1-yl]carbonyl}-2-{[1-(4-methylphenyl)cyclopropyl]methyl}-5,6,7,8-tetrahydro[1,2,4]triazolo[4,3-a]pyridin-3(2H)-one] | 0.38
O=C([C@@H]1CCCc2nn(CC3(c4ccc(C(F)(F)F)cc4)CC3)c(=O)n21)N1CC(F)C1 [Example 527, (5S)-5-[(3-Fluoroazetidin-1-yl)carbonyl]-2-({1-[4-(trifluoromethyl)phenyl]cyclopropyl}methyl)-5,6,7,8-tetrahydro[1,2,4]triazolo[4,3-a]pyridin-3(2H)-one] | 1.2
COc1ccc(C2(Cn3nc4n(c3=O)[C@H](C(=O)N3CC[C@H](F)C3)CCC4)CC2)cc1 [Example 528, (5S)-5-{[(3S)-3-Fluoropyrrolidin-1-yl]carbonyl}-2-{[1-(4-methoxyphenyl)cyclopropyl]methyl}-5,6,7,8-tetrahydro[1,2,4]triazolo[4,3-a]pyridin-3(2H)-one] | 0.72
COc1ccc(C2(Cn3nc4n(c3=O)[C@H](C(=O)N3CCC(F)(F)C3)CCC4)CC2)cc1 [Example 529, (5S)-5-[(3,3-Difluoropyrrolidin-1-yl)carbonyl]-2-{[1-(4-methoxyphenyl)cyclopropyl]methyl}-5,6,7,8-tetrahydro[1,2,4]triazolo[4,3-a]pyridin-3(2H)-one] | 0.96
O=C([C@@H]1CCCc2nn(CC3(c4ccc(F)cc4F)CC3)c(=O)n21)N1CCCC1 [Example 530, (5S)-2-{[1-(2,4-Difluorophenyl)cyclopropyl]methyl}-5-(pyrrolidin-1-ylcarbonyl)-5,6,7,8-tetrahydro[1,2,4]triazolo[4,3-a]pyridin-3(2H)-one] | 0.22
